These results are taken from publication PMC7111793 (Tetrahedron, 2006).

Peptide text beside a SMILES is read from it. * marks the point of attachment. Cbz = O=C(OCc1ccccc1)*; CF3 = FC(F)(F)*

The test deals with SARS-CoV 3CL^pro (Severe acute respiratory syndrome coronavirus, UniProt P0C6X7). Format: biochemical.

With `CC(C)C[C@H](NC(=O)[C@@H](NC(=O)[C@H](C)NC(=O)OCc1ccccc1)C(C)C)C(=O)N[C@@H](CCC(N)=O)C(=O)C(F)(F)F` [Compound 4, (S)-4-[N-(Benzyloxycarbonyl)-L-alanyl-L-valyl-L-leucyl]amino-6,6,6-trifluoro-5-oxohexanamide] (Cbz-AVLQ-CF3), the “inhibitory activity in words” value was “moderate SARS-CoV 3CL^pro inhibitors”.
